Results: patent publication US20040058861A1, “Use of lipopeptides in immunotherapy of HIV+ individuals” (priority 2000, published 2004)
Where a SMILES comes first, the peptide text is derived from it. The star is where a group is joined. Palmitoyl = CCCCCCCCCCCCCCCC(=O)*

Assay: Solubilization of each lyophilized lipopeptide in pure acetic acid
Format: physicochemical
Conditions: pure acetic acid added to obtain 12.5 mg net/ml; before sonication
Method: Each lipopeptide is then solubilized by adding pure acetic acid to obtain a concentration of 12.5 mg net/ml. […] If the aggregates are not dissociated, the sonication is continued, separating each period of sonication (30 s) by 30 s gaps of no sonication, during which the bottles are shaken manually. At the end of the sonication step, the suspensions should be homogeneous (but will not be clear). Each lipopeptide is then diluted by adding water for injectable preparation. If the solution obtained is not totally clear, steps of heating in a water bath (at 40° C.±2° C.) and sonication (1 min maximum) may be carried out, separating them by 30 s gaps of no sonication. The final preparation is obtained by mixing the lipopeptides in equal weight amounts, adding them in the following order (the most hydrophilic to the most hydrophobic lipopeptides):

CCCCCCCCCCCCCCCC(=O)NCCCC[C@H](NC(=O)[C@H](CC(C)C)NC(=O)[C@H](CCCCN)NC(=O)[C@H](Cc1ccc(O)cc1)NC(=O)[C@H](CC(C)C)NC(=O)[C@H](Cc1c[nH]c2ccccc12)NC(=O)CNC(=O)[C@H](Cc1ccccc1)NC(=O)[C@@H](NC(=O)[C@H](CC(C)C)NC(=O)[C@@H]1CCCN1C(=O)[C@H](Cc1ccc(O)cc1)NC(=O)[C@H](CCCNC(=N)N)NC(=O)[C@@H](NC(=O)CNC(=O)[C@@H]1CCCN1C(=O)CNC(=O)[C@@H]1CCCN1C(=O)[C@@H](NC(=O)[C@H](Cc1ccc(O)cc1)NC(=O)[C@H](CC(N)=O)NC(=O)[C@H](CCC(N)=O)NC(=O)[C@H](Cc1c[nH]c2ccccc12)NC(=O)[C@H](CC(=O)O)NC(=O)[C@@H]1CCCN1C(=O)[C@H](Cc1ccccc1)NC(=O)[C@H](Cc1ccc(O)cc1)NC(=O)CNC(=O)[C@H](CCC(N)=O)NC(=O)[C@@H](NC(=O)[C@@H](N)Cc1c[nH]cn1)[C@@H](C)O)[C@@H](C)O)C(C)C)[C@@H](C)O)C(N)=O [Nef 116] (H-HTQGYFPDWQNYTPGPGVRYPLTFGWLYKLK(Palmitoyl)-NH2; N-terminus assumed)
solubility in pure acetic acid: soluble
